Earlier results as cited in patent publication US8450380B2, “Method for implementing active ingredients in order to protect them and optimize their delivery method” (Coatex S.A.S., priority 2007, dated 2013).

Conditions: general statement

- Solubility: non-hydrosoluble
SMILES: O=c1c2cc(Cl)ccc2[nH]c2cc3c(=O)c4cc(Cl)ccc4[nH]c3cc12 [Magenta Cinquasia RT-235-D, 2,9 dichloro-5,12 dihydroquino [2,3-b] acridine-7,14 dione]
